From patent US8110681B2, “Compounds for the treatment of spinal muscular atrophy and other uses” (The United States of America as represented by the …, priority 2006, dated 2012)
pEC50: −log10 of the molar value. Where two headings read alike, the source gives them in different places.

System: SMN2-linked luciferase-reporter gene construct
Assay: SMN splice reporter assay (SMN2-linked luciferase reporter, Example 10)
Type: cell-based
Settings: for maximal fold induction: read-out: SMN Splice Reporter Assay (Example 10) Avg MaxFold Increase
Procedure, shortened: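 Values are fold-increase in luciferase signal relative to baseline cells without compound. The cervical carcinoma line used holds a fusion of alternatively spliced SMN2 sequence and luciferase. Readable frame, and thus signal, arises only with exon 7-including splicing.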

[1] = SMN2-linked luciferase reporter, average
[2] = maximum fold increase of reporter signal, average
[3] = SMN2-linked luciferase reporter, average maximum fold increase

Structure (SMILES): COc1ccc(-c2ccc3c(c2)C(=O)N(c2ccc(C(C)C(=O)O)cc2)C3)cc1 (centres unmarked) [ALB-112448]
- pEC50 [1]: 5.21
- maximal fold induction [2]: 1.55

Structure (SMILES): CCCNC(=O)Nc1ccc2c(c1)C(=O)N(c1ccc(C(C)C)cc1)C2 [ALB-118415]
- pEC50 [1]: 4.88
- maximal fold induction [3]: 1.4

Structure (SMILES): CC(C)c1ccc(N2Cc3cccc(OC(F)F)c3C2=O)cc1 [ALB-118279]
- pEC50 [1]: 6.66
- maximal fold induction [3]: 1.55

Structure (SMILES): CC(C)(C)c1ccc(N2Cc3ccc(OC(F)F)cc3C2=O)cc1 [ALB-119043]
- pEC50 [1]: 6.00
- maximal fold induction [3]: 1.39

Structure (SMILES): CC(C(=O)O)c1ccc(N2Cc3ccccc3C2=O)c(-c2ccc(Cl)c(Cl)c2)c1 (centres unmarked) [ALB-112161]
- maximal fold induction [2]: 1.1

Structure (SMILES): Cc1cc(C(C)C(=O)OC(C)(C)C)ccc1N1Cc2ccccc2C1=O (centres unmarked) [ALB-112483]
- maximal fold induction [2]: 1.03

Structure (SMILES): CCOCc1ccc2c(c1)C(=O)N(c1ccc(C(C)COC)cc1)C2 (centres unmarked) [ALB-114846]
- pEC50 [1]: 6.31
- maximal fold induction [2]: 1.3

Structure (SMILES): CCCCCCc1cccc2c1C(=O)N(c1ccc(C(C)C(=O)O)cc1)C2 (centres unmarked) [ALB-113495]
- pEC50 [1]: 4.74
- maximal fold induction [2]: 1.35

Structure (SMILES): CC(C(=O)O)c1ccc(N2Cc3ccccc3C2=O)cc1-c1ccc(Cl)c(Cl)c1 (centres unmarked) [ALB-111999]
- maximal fold induction [2]: 1.05

Structure (SMILES): CCOc1ccc2c(c1)C(=O)N(c1ccc(C(C)C(=O)O)cc1)C2 (centres unmarked) [ALB-113102]
- pEC50 [1]: 7.21
- maximal fold induction [2]: 1.83

Structure (SMILES): C=Cc1ccc2c(c1)C(=O)N(c1ccc(C(C)C)cc1)C2 [ALB-115714]
- pEC50 [1]: 7.28
- maximal fold induction [2]: 1.37

Structure (SMILES): CCc1ccc2c(c1)C(=O)N(c1ccc(C(C)C(=O)OC(C)(C)C)cc1)C2 (centres unmarked) [ALB-113211]
- pEC50 [1]: 6.10
- maximal fold induction [2]: 1.37

Structure (SMILES): CCCCCc1ccc2c(c1)CN(c1ccc(C(C)C(=O)O)cc1)C2=O (centres unmarked) [ALB-113491]
- maximal fold induction [2]: 1.12

Structure (SMILES): CC(C(=O)O)c1ccc(N2Cc3ccc(-c4cccs4)cc3C2=O)cc1 (centres unmarked) [ALB-112515]
- pEC50 [1]: 6.31
- maximal fold induction [2]: 1.62

Structure (SMILES): CC(C(=O)N1CCCCC1)c1ccc(N2Cc3ccccc3C2=O)cc1 (centres unmarked) [ALB-112078]
- maximal fold induction [2]: 1.15

Structure (SMILES): CC(C(=O)O)c1ccc(N2Cc3cccc(Br)c3C2=O)cc1 (centres unmarked) [ALB-112067]
- pEC50 [1]: 5.01
- maximal fold induction [2]: 1.36

Structure (SMILES): CC(C(=O)O)c1ccc(N2Cc3ccc(F)cc3C2=O)cc1 (centres unmarked) [ALB-113836]
- pEC50 [1]: 6.26
- maximal fold induction [2]: 1.78

Structure (SMILES): CC(C(=O)O)c1ccc(N2C(=O)c3ccccc3C2C)cc1 (centres unmarked) [ALB-111964]
- pEC50 [1]: 5.85
- maximal fold induction [2]: 1.63

Structure (SMILES): COc1ccc(-c2ccc3c(c2)C(=O)N(c2ccc(C(C)C(=O)OC(C)(C)C)cc2)C3)cc1 (centres unmarked) [ALB-112450]
- maximal fold induction [2]: 1.09

Structure (SMILES): CC(C(=O)OC(C)(C)C)c1cccc(N2Cc3ccccc3C2=O)c1 (centres unmarked) [ALB-112361]
- maximal fold induction [2]: 1.09

Structure (SMILES): CC(C(=O)O)c1ccc(N2Cc3ccc(NC(=O)c4ccccc4)cc3C2=O)cc1 (centres unmarked) [ALB-111986]
- maximal fold induction [2]: 1.06

Structure (SMILES): Cc1ccc2c(c1)C(=O)N(c1ccc(C3CCCC3)cc1)C2 [ALB-116073]
- maximal fold induction [3]: 1.08

Structure (SMILES): COc1cccc2c1CN(c1ccc(C(C)C(=O)OC(C)(C)C)cc1)C2=O (centres unmarked) [ALB-111894]
- pEC50 [1]: 5.50
- maximal fold induction [2]: 1.29

Structure (SMILES): CC(C(=O)O)c1ccc(N2Cc3ccccc3C2=O)cc1C#N (centres unmarked) [ALB-112437]
- maximal fold induction [2]: 1.09

Structure (SMILES): COc1cccc2c1C(=O)N(c1ccc(C(C)C(=O)O)cc1)C2 (centres unmarked) [ALB-111957]
- maximal fold induction [2]: 1.23

Structure (SMILES): COc1ccc2c(c1)C(=O)N(c1ccc(C(C)CO)cc1)C2 (centres unmarked) [ALB-114606]
- pEC50 [1]: 6.74
- maximal fold induction [2]: 1.31

Structure (SMILES): CC(C(=O)OC(C)(C)C)c1ccc(N2Cc3cc(N)ccc3C2=O)cc1 (centres unmarked) [ALB-111949]
- pEC50 [1]: 5.28
- maximal fold induction [2]: 1.29

Structure (SMILES): CC(C(=O)O)c1ccc(N2Cc3cccc(-c4cccnc4)c3C2=O)cc1 (centres unmarked) [ALB-112157]
- pEC50 [1]: 4.69
- maximal fold induction [2]: 1.2

Structure (SMILES): CC(C(=O)OC(C)(C)C)c1ccc(N2Cc3cc(Br)ccc3C2=O)cc1 (centres unmarked) [ALB-111853]
- pEC50 [1]: 4.67
- maximal fold induction [2]: 1.1

Structure (SMILES): COCC(C)(C)c1ccc(N2Cc3ccccc3C2=O)cc1 [ALB-115427]
- maximal fold induction [2]: 1.31

Structure (SMILES): CC(C(=O)O)c1ccc(N2Cc3ccccc3C2=O)c(-c2cccnc2)c1 (centres unmarked) [ALB-112198]
- maximal fold induction [2]: 1.12

Structure (SMILES): CC(C(=O)O)c1ccc(N2Cc3ccccc3C2=O)cc1Br (centres unmarked) [ALB-111962]
- maximal fold induction [2]: 1.08

Structure (SMILES): Cc1ccc(-c2cccc3c2C(=O)N(c2ccc(C(C)C(=O)O)cc2)C3)cc1 (centres unmarked) [ALB-112174]
- maximal fold induction [2]: 1.18

Structure (SMILES): CC(C(=O)O)c1ccc(N2CC3=C(CCCC3)C2=O)cc1 (centres unmarked) [ALB-112951]
- pEC50 [1]: 6.55
- maximal fold induction [2]: 1.79
